What was measured:
[1] = Compound stability test in human blood; type: in vitro ADME; conditions: 37° C., 1 μM; for Remaining Percentages (%): human blood; for half-life at 1 μM: in vitro half-life in human blood
Method: (§1) One (1) mM test compound working solution was prepared in DMSO. One (1) mM propantheline working solution was prepared in acetonitrile, wherein propantheline was used as positive control in this assay.
(§2) Ten (10) μL of each test compound solution and the control compound solution were respectively added into a 96 deep well plate, and 40 μL of acetonitrile:water (V/V=1:1) was added to each well to dilute the 1 mM test compound solution to 200 μM working solution.
(§3) Mouse blood (male CD-1 mouse blood, Pharmaron, Lot# PH-ADME-Mouse-20180329) or human blood (Pharmaron, Lot# PH-ADME-Human-20180329) of 398 μL was added to each well of an incubation plate, and then the incubation plate was pre-warmed at 37° C. for 15 minutes. After the pre-incubation, 2 μL of 200 μM working solution prepared above was spiked to the pre-warmed 398 μL blood to reach a final concentration of 1 μM. The final concentration of DMSO was 0.1% and the final concentration of acetonitrile was 0.2%. The assay was performed in duplicate.
(§4) The incubation plate was incubated at 37° C. water bath with shaking at 50 rpm, and aliquots of 50 μL were taken from each well of the incubation plate at 0, 10, 30, 60, 90, 120 and 180 minutes.
(§5) The reaction was stopped by the addition of 50 μL of pure water. The plate was vortexed for 30 seconds at 1,000 rpm and then added with 300 μL of cold acetonitrile containing internal standards (100 nM aprozolam, 200 nM caffeine, 100 nM tolbutamide).
(§6) All samples were vortexed for 10 minutes, followed by centrifugation at 14,000 rpm for 15 minutes to precipitate proteins. 100 μL of each supernatant was transferred to a new plate, and diluted with ultrapure water according to the LC-MS signal response and peak shape.
(§7) Samples were analyzed by LC-MS/MS.
(§8) • LC system: ACQUITY UPLC® I-Class • MS analysis: Waters XEVO® TQ-D with an ESI interface • Column temperature: 40° C. • Injection volume: 3 μL • Column: Waters XSelect HSS T3 C18, 2.5 μm, 2.1×50 mm column • Mobile phase: 0.1% formic acid in water (A) and 0.1% formic acid in acetonitrile (B)
(§9) • Ion source: Turbo spray • Ionization model: ESI • Scan type: MRM • Cone gas: 150 L/h • Desolvation gas: 1000 L/h • Desolvation temperature: 500° C. • Capillary voltage: 3.00 KV
(§10) All calculations were carried out using Microsoft Excel. Peak area ratios were determined from extracted ion chromatograms, and percent compounds remaining at each time point were calculated by the following equation:
(§11) Remaining Percentaget min(%)=Peak Area Ratiot min/Peak Area Ratio0 min×100, where Peak Area Ratiot min referred to peak area ratio of control and test compounds at t min; and Peak Area Ratio0 min referred to peak area ratio of control and test compounds at zero time point. The in vitro half-life (in vitro t1/2) was determined from the slope value: In vitro T1/2=−(0.693/k).

[2] = Compound stability test in mouse blood; type: in vitro ADME; conditions: 37° C., 1 μM; for half-life at 1 μM: male, CD-1, in vitro half-life in mouse blood; for Remaining Percentages (%): mouse blood
Method: as §1, §2, §3, §4, §5, §6, §7, §8, §9, §10, §11

SMILES | Remaining Percentages (%) ([1]; 0 min) | Remaining Percentages (%) ([1]; 10 min) | Remaining Percentages (%) ([1]; 30 min) | Remaining Percentages (%) ([1]; 60 min) | Remaining Percentages (%) ([1]; 90 min) | Remaining Percentages (%) ([1]; 120 min) | Remaining Percentages (%) ([1]; 180 min) | half-life at 1 μM [1] [min] | half-life at 1 μM [2] [min] | Remaining Percentages (%) ([2]; 0 min) | Remaining Percentages (%) ([2]; 10 min) | Remaining Percentages (%) ([2]; 30 min) | Remaining Percentages (%) ([2]; 60 min) | Remaining Percentages (%) ([2]; 90 min) | Remaining Percentages (%) ([2]; 120 min) | Remaining Percentages (%) ([2]; 180 min)
CCC(C)n1ncn(-c2ccc(N3CCN(c4ccc(OCC5COC(Cn6c[n+](C)cn6)(c6ccc(Cl)cc6Cl)O5)cc4)CC3)cc2)c1=O.[Cl-] (centres unmarked) [Compound 1] | 100 | 68.5 | 32.6% | 12.3% | 7.80% | 2.02% | 0.36% | 23.1 | 1.77 | 100 | 2.01 | 0.00% | 0.00% | 0.00% | 0.00% | 0.00%
CCC(C)n1ncn(-c2ccc(N3CCN(c4ccc(OCC5COC(Cn6c[n+](CC)cn6)(c6ccc(Cl)cc6Cl)O5)cc4)CC3)cc2)c1=O.[Cl-] (centres unmarked) [Compound 2] | 100 | 60.3 | 26.1% | 8.47% | 3.59% | 1.66% | 0.30% | 15.6 | 11.8 | 100 | 40.1 | 16.2% | 3.79% | 0.90% | 0.175% | 0.00%

More lines, now with the values ahead:

Remaining Percentages (%) ([1]; 0 min) | Remaining Percentages (%) ([1]; 10 min) | Remaining Percentages (%) ([1]; 30 min) | Remaining Percentages (%) ([1]; 60 min) | Remaining Percentages (%) ([1]; 90 min) | Remaining Percentages (%) ([1]; 120 min) | Remaining Percentages (%) ([1]; 180 min) | half-life at 1 μM [1] [min] | half-life at 1 μM [2] [min] | Remaining Percentages (%) ([2]; 0 min) | Remaining Percentages (%) ([2]; 10 min) | Remaining Percentages (%) ([2]; 30 min) | Remaining Percentages (%) ([2]; 60 min) | Remaining Percentages (%) ([2]; 90 min) | Remaining Percentages (%) ([2]; 120 min) | Remaining Percentages (%) ([2]; 180 min) | SMILES
100 | 61.0 | 30.2% | 8.93% | 4.67% | BLOD | BLOD | 17.7 | 6.03 | 100 | 31.5 | 4.04% | BLOD | BLOD | BLOD | BLOD | CCC(C)n1ncn(-c2ccc(N3CCN(c4ccc(OCC5COC(Cn6c[n+](COC(=O)C(C)C)cn6)(c6ccc(Cl)cc6Cl)O5)cc4)CC3)cc2)c1=O.[Cl-] (centres unmarked) [Compound 4]
100 | 69.4 | 30.4% | 9.76% | 5.50% | 2.08% | BLOD | 18.1 | 4.84 | 100 | 23.9 | 1.48% | BLOD | BLOD | BLOD | BLOD | CCC(C)n1ncn(-c2ccc(N3CCN(c4ccc(OCC5COC(Cn6c[n+](COC(=O)C(C)(C)C)cn6)(c6ccc(Cl)cc6Cl)O5)cc4)CC3)cc2)c1=O.[Cl-] (centres unmarked) [Compound 5]
100 | 25.3 | BLOD | BLOD | BLOD | BLOD | BLOD | 5.07 | 7.12 | 100 | 37.3 | BLOD | BLOD | BLOD | BLOD | BLOD | CCCOC(=O)OC[n+]1cnn(CC2(c3ccc(Cl)cc3Cl)OCC(COc3ccc(N4CCN(c5ccc(-n6cnn(C(C)CC)c6=O)cc5)CC4)cc3)O2)c1.[Cl-] (centres unmarked) [Compound 7]

Source: US20210346506A1, “PRODRUG OF ITRACONAZOLE AND USES THEREOF” (priority 2020, published 2021)
